PubChem BioAssay (NCI)
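Where inhibition never reached the appropriate level, the endpoint shown equals the highest concentration tested. Otherwise, values were interpolated linearly from a five-concentration, 48-hour dose response in 96-well plates. GI50 is the concentration that inhibits growth by half. The concentration for full growth arrest is given as TGI.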

What was measured:
Test in all cases: DTP human tumour cell line panel, 48 h
[1] = tested on: SW-620 colon
[2] = tested on: SN12C renal
[3] = tested on: EKVX NSCLC
[4] = tested on: KM12 colon
[5] = tested on: HT29 colon
[6] = tested on: CAKI-1 renal
[7] = tested on: SR leukemia
[8] = tested on: A498 renal
[9] = tested on: HCT-15 colon
[10] = tested on: HS 578T breast
[11] = tested on: MDA-MB-468 breast
[12] = tested on: HOP-92 NSCLC
[13] = tested on: NCI-H522 lung
[14] = tested on: UO-31 renal
[15] = tested on: OVCAR-5 ovarian
[16] = tested on: MDA-MB-231 breast
[17] = tested on: CCRF-CEM leukemia
[18] = tested on: M14 melanoma
[19] = tested on: HCC-2998 colon
[20] = tested on: UACC-257 melanoma
[21] = tested on: SNB-75 CNS
[22] = tested on: RXF 393 renal
[23] = tested on: SK-OV-3 ovarian
[24] = tested on: MALME-3M melanoma
[25] = tested on: SK-MEL-28 melanoma
[26] = tested on: MOLT-4 leukemia
[27] = tested on: MDA-MB-435
[28] = tested on: TK-10 renal
[29] = tested on: K-562 leukemia
[30] = tested on: NCI-H23 lung
[31] = tested on: IGROV1 ovarian
[32] = tested on: SF-268 CNS
[33] = tested on: T-47D breast
[34] = tested on: RPMI-8226 leukemia
[35] = tested on: SF-539 CNS
[36] = tested on: COLO 205 colon
[37] = tested on: SNB-19 CNS
[38] = tested on: OVCAR-4 ovarian
[39] = tested on: HL-60(TB) leukemia
[40] = tested on: NCI/ADR-RES ovarian
[41] = tested on: UACC-62 melanoma
[42] = tested on: ACHN renal
[43] = tested on: SK-MEL-2 melanoma
[44] = tested on: SK-MEL-5 melanoma
[45] = tested on: HCT-116 colon
[46] = tested on: DU-145 prostate
[47] = tested on: LOX IMVI melanoma

Cc1ccc2c(c1)nc(-c1ccccc1)n2CC(=O)N=Nc1c(O)[nH]c2ccc(Cl)cc12
GI50 [1]: 2.07 µM | TGI [1]: 4.43 µM | GI50 [2]: 1.78 µM | TGI [2]: 3.54 µM | GI50 [3]: 1.61 µM | TGI [3]: 3.71 µM | GI50 [4]: 2.95 µM | TGI [4]: 9.49 µM | GI50 [5]: 1.84 µM | TGI [5]: 3.76 µM | GI50 [6]: 2.18 µM | TGI [6]: 6.64 µM | GI50 [7]: 3.41 µM | TGI [7]: > 100 µM | GI50 [8]: 1.91 µM | TGI [8]: 3.93 µM | GI50 [9]: 1.81 µM | TGI [9]: 3.57 µM | GI50 [10]: 2.09 µM | TGI [10]: 6.14 µM | GI50 [11]: 1.34 µM | TGI [11]: 2.77 µM | GI50 [12]: 1.57 µM | TGI [12]: 3.76 µM | GI50 [13]: 1.67 µM | TGI [13]: 3.38 µM | GI50 [14]: 1.38 µM | TGI [14]: 3.36 µM | GI50 [15]: 2.91 µM | TGI [15]: 9.28 µM | GI50 [16]: 1.83 µM | TGI [16]: 3.52 µM | GI50 [17]: 2.41 µM | TGI [17]: 52.9 µM | GI50 [18]: 2.17 µM | TGI [18]: 4.77 µM | GI50 [19]: 1.79 µM | TGI [19]: 3.47 µM | GI50 [20]: 1.86 µM | TGI [20]: 3.77 µM | GI50 [21]: 1.52 µM | TGI [21]: 3.39 µM | GI50 [22]: 1.5 µM | TGI [22]: 3.04 µM | GI50 [23]: 2.11 µM | TGI [23]: 4.44 µM | GI50 [24]: 1.87 µM | TGI [24]: 4.07 µM | GI50 [25]: 1.88 µM | TGI [25]: 3.52 µM | GI50 [26]: 2.39 µM | TGI [26]: 11.5 µM | GI50 [27]: 2.38 µM | TGI [27]: 5.44 µM | GI50 [28]: 2.79 µM | TGI [28]: 7.18 µM | GI50 [29]: 3.13 µM | TGI [29]: > 100 µM | GI50 [30]: 1.7 µM | TGI [30]: 3.35 µM | GI50 [31]: 1.69 µM | TGI [31]: 3.38 µM | GI50 [32]: 2.36 µM | TGI [32]: 6.49 µM | GI50 [33]: 1.94 µM | TGI [33]: 5.14 µM | GI50 [34]: 2.78 µM | TGI [34]: 10.4 µM | GI50 [35]: 1.69 µM | TGI [35]: 3.29 µM | GI50 [36]: 2.67 µM | TGI [36]: 7 µM | GI50 [37]: 2.13 µM | TGI [37]: 5.55 µM | GI50 [38]: 2.37 µM | TGI [38]: 5.93 µM | GI50 [39]: 4.62 µM | TGI [39]: 29.8 µM | GI50 [40]: 1.84 µM | TGI [40]: 3.55 µM | GI50 [41]: 1.75 µM | TGI [41]: 3.45 µM | GI50 [42]: 1.61 µM | TGI [42]: 3.31 µM | GI50 [43]: 10.5 µM | TGI [43]: 25 µM | GI50 [44]: 2.01 µM | TGI [44]: 4.92 µM | GI50 [45]: 2.48 µM | TGI [45]: 6.21 µM | GI50 [46]: 2.53 µM | TGI [46]: 5.8 µM | GI50 [47]: 1.57 µM | TGI [47]: 2.98 µM
